Results published in patent US8518450B2, “Nanoparticle carriers for drug administration and process for producing same” (CSIR, priority 2008, dated 2013).

Experiments:
[1] = Drug incorporation / encapsulation efficiency of INH (UV-Vis); format: physicochemical; conditions: spray dried PLGA nanoparticles, PLGA:INH 2:1
Method: The amount of the hydrophilic drug Isoniazid that was entrapped in the particle powder after the nanoencapsulation process was measured in triplicate using a spectrophotometric method (UV-Vis, Thermo Spectronic Heliosα). The encapsulation efficiency of INH in nanoparticles was determined as the mass ratio of the entrapped INH to the theoretical amount of INH used in the preparation. For that, 50 mg of precipitated particles were re-suspended in 20 ml of deionised water, centrifuged (10 000 rpm/10 C/5 min) to remove the un-encapsulated drug and the supernatant was subject to UV-Vis Spectrophotometer, read at λ=262 nm for INH assessment. The encapsulated amount of INH was determined by subtracting INH in the supernatant from total initial INH amount.

[2] = INH stability assessment using RP-HPLC; format: physicochemical; conditions: formulation with lactose
Method: The stability of INH spray dried powders was assessed by reverse phase-high performance liquid chromatography-analysis (RP-HPLC) using Shimadzu machine supplied with Photodiode Array (PDA) detector.
The following characteristics were applied: a Column Phenomenex [(C18 (5 μm); (250×4.6 mm ID)], a mobile phase of 5% (v/v) acetonitrile with 95% (v/v) buffer NaH2PO4 (pH 6.8), at a flow rate of 1 ml/min and at a temperature of 30° C. The detection was performed using PDA at λ=259 nm, on a total injection volume of 20 μl.

NNC(=O)c1ccncc1 [INH, isoniazid]
encapsulation efficiency of INH [1]: ~60%
stability of INH in spray dried powders (HPLC) [2]: degradation of INH
